“Also recorded” adds a separate entry of the source.
Legend:
[1] = tested on: two lung cancer cell lines; details: associated with suppression of the Stat3 pathway; cited from earlier work
[2] = tested on: H2030 cells; test: Clonogenic assay, ionizing radiation plus TG; assay type: cell-based; details: 5 Gy+1 μM TG; most radioresistant cells
Method: (§1) To screen the candidate interferon-stimulated genes, a panel of fifteen individual cancer cell lines were selected from those available in our lab, the ATCC, or affiliated laboratories (see Table No. 3, below). These cell lines were characterized for relative radioresistance using a clonogenic assay. Briefly, the cells were cultured in their appropriate media at 5% CO2 at 37° C. Optimal cell plating concentrations for a p60 dish were determined for each cell line. The majority of cell lines were plated in triplicate at concentrations of 100 cells/plate for control, 1000 cells/plate for 2 Gy, 2000 cells/plate for 5 Gy, and 3000 cells/plate for 8 Gy. Plates were irradiated 24 hours after plating with either 2, 5, or 8 Gy using a Nordion Gammacell ^60Co irradiator operating at a dose rate of ˜18 Gy/minute. Cells were allowed to grow for 10-21 days (depending on the cell line) until colonies were >50 cells. Plates were then fixed with formalin and stained with crystal violet. Colonies with more than 50 cells were counted. Clonogenic survival for Clonogenic data was obtained for all cell lines tested in screen.
In subsequent experiments, 18 lung cancer cell lines were tested for sensitivity to the Jak2 inhibitor SAR302503 (TG) using a clonogenic assay. […] Further, radioresistance was positively correlated with resistance to Jak2 suppression in 11 cell lines.

[3] = tested on: lung cancer cell lines; test: Clonogenic assay, sensitivity of lung cancer cell lines to drug; assay type: cell-based
Method: as §1
In subsequent experiments, 18 lung cancer cell lines were tested for sensitivity to the Jak2 inhibitor SAR302503 (TG) using a clonogenic assay. […] Further, radioresistance was positively correlated with resistance to Jak2 suppression in 11 cell lines. […]

[4] = tested on: CWRR1 (pStat3-negative) xenografts; test: Xenograft in nude mice treated by ionizing radiation, TG, or their combination; assay type: in vivo; details: without constitutive activation of Jak/Stat signaling
Method: (§2) The relative sensitivity of lung cancer cell lines to TG and etoposide—one of the most common drugs in adjuvant chemotherapy of lung cancer was also tested. Subgroups of cell lines were found with relatively high resistance to etoposide (SF>0.5) but relatively sensitive to TG (0.1<SF<0.2; see FIG. 8). As proof of principle, two isogenic cell lines CWRR1 (pStat3-negative, without constitutive activation of Jak/Stat-signaling) and CW22Rv1 (with constitutively active Jak/Stat signaling) were established as xenografts in nude mice and treated by ionizing radiation, TG, or their combination.

[5] = tested on: CW22Rv1 (pStat3-positive) xenografts; test: as above; assay type: in vivo; details: constitutively active Jak/Stat signaling
Method: as §2

[6] = tested on: Stat1; test: Western blot of interferon-mediated Stat1 activation with Jak inhibitors; assay type: cell-based; details: β- and γ-interferon (Type I and Type II IFN) signaling, SCC61 cells
Method: (§3) Treatment with TG and Rux inhibited β- and γ-interferon-mediated activation of Stat1 and Stat3;
(§4) Total cellular protein was extracted in radioimmunoprecipitation assay buffer with protease inhibitors added (1×PBS, 1% NP40, 0.5% sodium deoxycholate, 0.1% SDS, 1 mmol/L Na3VO4, 2 μg/mL aprotinin, 1 mmol/L phenylmethylsulfonyl fluoride). All samples were normalized by protein concentration using Bradford reagent and standard solution of bovine serum albumin (1 mg/mL). Concentration of all samples was adjusted to 1 mg/mL and equal amount of protein was loaded in each well. For total proteins, 10 μg of protein was loaded per well. Proteins were separated on 7.5%-12% SDS-PAGE (depending on molecular mass of protein) and transferred to polyvinylidene difluoride membranes (PVDF). Total proteins were detected using the rabbit or goat primary Abs. For loading control, the antibodies for actin (I-19) and glyceraldehyde-3-phosphate dehydrogenase (GAPDH; FL-335) were used. All antibodies were purchased from Santa Cruz Biotechnology. Images were quantified with ImageJ software by integration pixel values across the area of specific bands.
(§5) The effects of Jak1/2 and Jak2 inhibitors were investigated on the activation of Stat1 and Stat3 in the context of Type I and Type II IFN signaling. […]

[7] = tested on: Stat3; test: Western blot of interferon-mediated Stat3 activation with Jak inhibitors; assay type: cell-based; details: β- and γ-interferon (Type I and Type II IFN) signaling, SCC61 cells
Method: as §3, §4, §5

[8] = tested on: different cell lines; test: Suppression of tumor growth in different cell lines; assay type: cell-based; details: data not shown

In the case of Cc1cnc(Nc2ccc(N3CCN(C)CC3)cc2)nc1Nc1cccc(S(=O)(=O)NC(C)(C)C)c1 [TG101209], the radiosensitizing effects [1] is listed as “radiosensitizing effects”.

In the case of Cc1cnc(Nc2ccc(OCCN3CCCC3)cc2)nc1Nc1cccc(S(=O)(=O)NC(C)(C)C)c1 [TG], the clonogenic colonies [2] is reported as “no clonogenic colonies formed”, the “sensitivity to TG” value ([3]; 7 relatively radioresistant cell lines of 18 lung cancer cell lines, clonogenic assay) is reported as “high sensitivity” and the “sensitization to ionizing radiation” value [4] is reported as “not sensitized”. The “sensitization to ionizing radiation” value [5] was “successfully sensitized”, the “phosphorylation (activation) of Stat1” value [6] was “suppressed; also recorded: inhibited” and the “phosphorylation (activation) of Stat3” value [7] was “suppressed; also recorded: inhibited”. For the same molecule, the “suppression of tumor growth compared to Ruxolitinib” value [8] was “more effectively suppressed tumor growth compared to Ruxolitinib”.

In the case of COc1cc([C@@H]2c3cc4c(cc3[C@@H](O[C@@H]3O[C@@H]5CO[C@@H](C)O[C@H]5[C@H](O)[C@H]3O)[C@H]3COC(=O)[C@H]23)OCO4)cc(OC)c1O [etoposide], the “SF (surviving fraction)” value ([3]; subgroups of lung cancer cell lines with high resistance to etoposide but relatively sensitive to TG) is reported as over 0.5.

Source: patent US9790504B2, “Anti-tumor therapy” (The University of Chicago, priority 2013, dated 2017)
